# Results reported in patent publication US20060270641A1, “Method for chemoprevention of prostate cancer” (priority 2005, published 2006).
# Experiments:
# [1] = tested on: prostate glands of TRAMP mice; assay: SERMs in prevention of prostate cancer in the TRAMP model (wholemount and histology at 20 weeks); type: in vivo, mouse; conditions: sacrificed at 20 weeks; for Animals with prostate cancer / animals evaluated (column has no head): placebo 5/5; for Percent of animals with prostate cancer (column has no head): placebo 100%
# Protocol: Experimental design: Chemopreventive treatment of mice is initiated post-natal at 30 days. Three groups of 50 hybrid TRAMP male mice each are treated with either Tamoxifen citrate, Raloxifene (SERMs), or Faslodex (pure antiestrogen ICI 182,780). The drugs are obtained as customized sustained-release pellets (Innovative Research of America, Sarasota, Fla.) and delivered as subcutaneous implants (see preliminary data). Control animals receive placebo implant with no pharmacological activity. Animals (n=10) are sacrificed at periodic intervals, 10, 15, 20, 25 and 30 weeks age, and the efficacy of the treatment leading to either absence of tumor formation or reduction in tumor size, if present, is assessed by comparison with placebo control animals. Blood is collected to evaluate changes in serum androgens and estrogens with each treatment Prostatic tissues is saved: a) for morphometric studies; b) for histologic studies (the tissue will be fixed in 10% buffered formalin, processed and paraffin embedded); c) for molecular studies (the tissues is frozen in liquid nitrogen and stored at −70° C.). Necropsies and survival data is also recorded.
# The results of the experiment reveal the relative chemopreventive efficacy of the various antiestrogens in the delay or prevention of prostate cancer in the TRAMP model. The morphological studies indicate the gross changes, if any, in the development of the prostate size and ductal pattern as a result of each treatment. Paraffinized tissue sections are stained using standard H&E techniques for histological changes such as PIN that will be assessed to monitor the appearance of precancerous lesions as a precursor of prostatic adenocarcinoma. Serum estradiol and total testosterone levels are measured for each age interval to assess any changes in these hormones and whether or not they correlate to changes in PIN. The peptide growth factor levels of TGF, TGF 1, TGF 3, and bFGF are quantitative in prostate samples taken at each interval. Corresponding peptide growth factor receptors are also assessed for EGFR and TGF RI and RII.
# [2] = tested on: PIN; conditions: 60 mg daily for 4 months
# [3] = tested on: TRAMP mouse ventral prostate; assay: Histological examination (H&E) of TRAMP prostate tissue; type: in vivo
# Protocol: Tumors from the placebo and high toremifene-treated groups taken at the time of palpation were evaluated histologically. FIG. 2A is an H&E section of the ventral prostate of a 17-week-old normal adult mouse.
# [4] = tested on: prostate of TRAMP mice; assay: TRAMP confirmation study: wholemount, histology, large T antigen immunohistochemistry; type: in vivo, mouse
# Protocol: The present study focuses on the histological and molecular changes associated with development of prostate tumor in control animals and the mechanism of toremifene chemopreventive action with TRAMP animals which are bred, screened and treated with sustained-release drug pellets. At predetermined times, groups of 5 animals were sacrificed and their prostates were removed for analysis. The prostate glands were evaluated for the presence of tumor by histology, wholemount dissections, and large T antigen immunohistochemistry. To date, the Placebo and the Toremifene treatments have been completed for the 7, 10, 15 and 20 week time-points, and the results are described below.
# Results: Prostatic wholemounts for 7,10,15, and 20 weeks for the various groups have been completed. […] By 20 weeks, there is a striking delay in tumor occurrence in the Toremifene treated group up to 35 weeks FIG. 4). […] For histological evaluation, tissue samples were fixed, processed and paraffin embedded. Sections ([…]) were cut and stained by routine H&E method.
# [5] = tested on: LNCaP tumors; assay: Regression of established LNCaP tumors in athymic nude mice; type: in vivo
# Protocol: Materials and Methods: One million LNCaP cells in Matrigel were subcutaneously injected into each flank of athymic nude mice. A total of 40 mice were injected. After approximately 3-4 weeks, visible tumors developed. After the tumor size was recorded in two dimensions, the mice were divided into placebo and treatment groups based on equivalent tumor burden. A single pellet (placebo versus toremifene 35 mg) was subcutaneously implanted between the scapulae of each mouse. Weekly measurements of the tumor size were recorded. Tumor volume was calculated (tumor volume=[…], where L=tumor length and W=width). The tumor volume at the time of pellet implantation served as the point of reference for future comparison of that tumor's size variation. The weekly variations of each tumor volume were recorded as percent differentiation from the original measurement at pellet implantation.
# [6] = tested on: ventral prostate of TRAMP mice; assay: Chemopreventive activity in TRAMP transgenic mice, absence of palpable tumor formation; type: in vivo, mouse; conditions: for Week at which tumor formation in the ventral prostate was noted: n=12, placebo week 17; for Animals still tumor-free: all control animals had tumors
# Text: The study of prostate cancer chemoprevention has been hindered by the lack of appropriate animal models. The recent development of the transgenic adenocarcinoma mouse prostate (TRAMP) model enables the study of chemoprevention. In the TRAMP model, which is described in Greenberg et al., A Prostate cancer in a transgenic mouse, Proc. Natl Acad. Sci. USA, 1995, Vol. 92, pages 3439-3443, the PB-SV40 large T antigen (PB-Tag) transgene is expressed specifically in the epithelial cells of the murine prostate. As a result, this model has several advantages over currently existing models: 1) mice develop progressive forms of prostatic epithelial hyperplasia as early as 10 weeks and invasive adenocarcinoma around 18 weeks of age; 2) the metastatic spread of prostate cancer pattern mimics human prostate cancer with the common sites of metastases being lymph node, lung, kidney, adrenal gland, and bone; 3) the development as well as the progression of prostate cancer can be followed within a relatively short period of 10-30 weeks; 4) the tumors arise with prostate cancer transgene prior to the onset of clinical prostate cancer to directly test treatment with chemopreventive agents that may alter prostate carcinogenesis.
# A study was undertaken to test the efficacy of chemopreventive agents in TRAMP transgenic animals (PBTag×FVBwt)(provided by Dr. Norman Greenberg, Baylor College of Medicine, Tex.). […] The TRAMP transgenic male litters were screened for the Large Tag transgene, and the positive males were used in the study. The antiestrogen toremifene, which was to be tested for its possible chemopreventive effects, was incorporated in customized pellets (Innovative Research of America, Sarasota, Fla.), and chemopreventive treatment of mice was initiated postnatally at 30 days (average mouse weight 14 g) Four groups of 10-12 animals each received subcutaneous implantations of 90 day-release toremifene-containing pellets. The diffusible drug dosage, adjusted for growth related changes in weight, was designed to deliver either a low dose (6 mg/kg) or a high dose (30 mg/kg) of toremifene. Control animals (n=IO) received placebo implants The efficacy of the treatment was measured by the absence of palpable tumor formation. The murine prostate tumors were harvested and evaluated by molecular and histological techniques
# [7] = tested on: human stromal fibroblast cells; assay: TGFβ synthesis in human stromal fibroblast cells; type: cell-based
smiles,measurement,setting,value
C[C@]12CC[C@@H]3c4ccc(O)cc4C[C@@H](CCCCCCCCC[S+]([O-])CCCC(F)(F)C(F)(F)F)[C@H]3[C@@H]1CC[C@@H]2O (some centres unmarked) [Faslodex],Animals with prostate cancer / animals evaluated (column has no head),[1]; 10 mg/kg/d,8/11
same,Percent of animals with prostate cancer (column has no head),[1]; 10 mg/kg/d,72%
"O=C(c1ccc(OCCN2CCCCC2)cc1)c1c(-c2ccc(O)cc2)sc2cc(O)ccc12 [Raloxifene, 6-hydroxy-2-(4-hydroxyphenyl)-3-[4-(2-piperidinoethoxy)benzoyl]benzo[b]thiophene]",Animals with prostate cancer / animals evaluated (column has no head),[1]; 20 mg/kg/d,3/10
same,Percent of animals with prostate cancer (column has no head),[1]; 20 mg/kg/d,30%
CC/C(=C(\c1ccccc1)c1ccc(OCCN(C)C)cc1)c1ccccc1 [Tamoxifen],Animals with prostate cancer / animals evaluated (column has no head),[1]; 20 mg/kg/d,2/9
same,Percent of animals with prostate cancer (column has no head),[1]; 20 mg/kg/d,22%
CN(C)CCOc1ccc(/C(=C(/CCCl)c2ccccc2)c2ccccc2)cc1 [Toremifene],Acute or chronic toxicities,[2],no acute or chronic toxicities
same,"Quality of life, including potency and libido",[2],unchanged
same,"Serum PSA, serum free testosterone, serum total testosterone and serum estradiol",[2],remained in the normal ranges
same,Complete response,[2]; 16 patients completed,75%
same,Patients who had prostate cancer but the amount of PIN was reduced,[2]; of 16 patients,3 patients
same,Patients with stable disease (PIN epithelium with atrophic and degenerative changes),[2]; of 16 patients,1 patient
same,Patients with regression of PIN to benign or atrophic prostate tissue,[2]; rebiopsy (8 biopsies),12 out of 16
same,Mitotic index relative to placebo-treated animal,[3]; toremifene-treated 30-week-old TRAMP mouse vs placebo-treated 16-week-old,much lower
same,Prostate histology (glandular architecture),"[3]; toremifene-treated 30-week-old TRAMP mouse, H&E, FIG. 2C",retains much of the normal glandular architecture
same,Delay in the occurrence of prostate cancer (wholemount analysis),"[4]; FIG. 3, placebo tumors by 15-20 weeks of age",up to 20 weeks
same,Delay in tumor occurrence,[4]; FIG. 4,up to 35 weeks
same,Effect on ductal development and tissue differentiation (histology),[4]; H&E sections,inhibited the ductal development and tissue differentiation
same,Animals with prostate cancer / animals evaluated (column has no head),[1]; 20 mg/kg/d,1/7
same,Percent of animals with prostate cancer (column has no head),[1]; 20 mg/kg/d,14.2%
same,Mean tumor volume after treatment,"[5]; toremifene 35 mg pellet, 1.90 mm^3 at pellet implantation, placebo increased to 2.33",1.68 mm^3
same,Mean serum PSA level,"[5]; toremifene 35 mg pellet, not statistically significant vs placebo (p=0.755)",2.80 ng/mL
same,Change of mean tumor volume,"[5]; toremifene 35 mg pellet, vs volume at pellet implantation",−0.22 mm^3
same,% Change in volume relative to day 0 of treatment,"[5]; week 3, toremifene 35 mg sc pellet, N=11",−34.58%
same,% Change in volume relative to day 0 of treatment,"[5]; week 4, toremifene 35 mg sc pellet, N=7",−61.01%
same,% Change in volume relative to day 0 of treatment,"[5]; week 5, toremifene 35 mg sc pellet, N=7",−74.51%
same,% Change in volume relative to day 0 of treatment,"[5]; week 6, toremifene 35 mg sc pellet, N=5",−61.72%
same,Delay of time to palpable tumors in 25% of the animals,[6]; high and low toremifene groups vs placebo,7-8 weeks
same,Time at which tumors were palpable in 25% of the animals,"[6]; high and low toremifene groups, placebo week 23",30-31 weeks
same,Week at which tumor formation in the ventral prostate was noted,[6]; high dose (30 mg/kg) 90 day-release sc pellet,19 week
same,Week at which tumor formation in the ventral prostate was noted,[6]; low dose (6 mg/kg) 90 day-release sc pellet,28 week
same,Increase of latency period for development of cancer in the ventral prostate,[6]; vs placebo,up to 11 weeks
same,Animals still tumor-free,"[6]; week 33, high dose (30 mg/kg)",60%
same,Animals still tumor-free,"[6]; week 33, low dose (6 mg/kg)",72%
same,TGFβ synthesis,[7],significantly induce
